Patent publication US7312248B2, “Control of parasites in animals by the use of novel trifluoromethanesulfonanilide oxime ether derivatives” (Schering-Plough Animal Health Corporation, priority 2004, dated 2007)
Where two headings read alike, the source gives them in different places.

Key:
Format in all cases: in vivo
[1] = test system: Haemonchus contortus; experiment: Haemonchus contortus larvacidal (larval development) assay; conditions: 144 h, read-out: Haemonchus contortus LD99
Summary of the method: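 Nematode eggs placed on agar containing compound (12 two-fold dilutions, final 0.024–50 μg/ml) and left 6 days to develop to L3. LD99 is the lowest concentration inhibiting development of 99% of larvae, derived from well titre (2^n−1) and top concentration.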

[2] = test system: cat flea (Ctenocephalides felis); experiment: whole plant or invertebrate; conditions: Ctenocephalides felis
Summary of the method: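 Adult C. felis (3-7 days post-emergence; 15 per flask, at least 4 replicates) exposed to a glass flask base dried 24 h after coating with compound in acetone at 1.26 μg/cm^2. Held at 25±1 °C, 75±5% humidity; mortality (immobile or unable to right) scored at 8, 24 and/or 48 h as percentage.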

[3] = test system: cat flea (Ctenocephalides felis); experiment: Ctenocephalides felis adulticide assay: dose response (LC50)
From the text: c) Ctenocephalides felis Adulticide Assay: C. felis Dose Response
The purpose of this example was to determine the LC50 when cat fleas were contacted with a glass surface treated with sample compounds or formulations prepared as described above. Mortality of fleas was defined as follows: fleas were considered dead if they didn't move or were on their sides and unable to walk or right themselves. LC50: Lethal Concentration 50—concentration of glass surface treatment at which 50% of the cat fleas were killed. The test species was the cat flea (Ctenocephalides felis). The strain used was obtained from external suppliers as pupae and held in the laboratory under testing conditions until the adults had emerged. Fifteen (15) fleas were used in a minimum of four replicates for each dose level (total of 60 fleas per dose level). The insects were selected to be in the adult life stage, aged between 3 and 7 days post emergence.
The compounds to be tested were dissolved in acetone just prior to testing. Samples of compounds were stored in a refrigerator (5±1° C.) unless otherwise specified. During the mortality testing, the temperature was maintained at 25+1° C. Humidity was maintained at 75±5%. The base (area=159 mm^2) of a 100 mL glass Erlenmeyer (conical) flask provided the treatment surface. Flasks were pretreated with Coatasil™ glass treatment to maximise bio-availability of test compounds by preventing them from binding to the glass surface.
Six dose levels (concentrations) of test sample, in the form of a serial dilution, were derived from a pilot study and covered a range that produced very low to very high mortality. The base of the 100 mL Erlenmeyer flask was treated with 0.5 mL of test sample in acetone and gently swirled. This volume was sufficient to cover the base of the flask. Flasks were left to dry for 24 hours before flea exposure. Adult cat fleas were lightly anaesthetised by cooling and then placed into a sorting chamber, which allowed fleas to revive and jump into the Erlenmeyer flasks. Fifteen (15)adult cat fleas were collected in each flask. The top of the flasks were then covered in Parafilm™ and small holes made to allow gas exchange. A 0.5 mL volume of acetone was applied to the base of an Erlenmeyer flask and the testing proceeded in the same manner described above. Cat fleas in the treatment containers were held under testing conditions for 24 hours. Mortality resulting from the treatments was recorded at 8 and 24 hours.

[4] = test system: Brown Dog Tick (Rhipicephalus sanguineus); experiment: Rapid screening protocol for topical application on brown dog ticks; conditions: 48 h; Laboratory 2 F data
Experimental: d) Rapid Screening Protocol for Topical Application on Brown Dog Ticks (Rhipicephalus sanguineus)
The aim of the test was to determine the presence of significant acaricidal activity in sample compounds or formulations when applied topically on brown dog ticks. A tick was defined as dead if it gave no apparent response when touched lightly and observed for 1 minute. […] Both permethrin and fipronil were employed as reference compounds. The insect species tested was the Brown Dog Tick (Rhipicephalus sanguineus). Mixed sex adult ticks were used for tests. The strain used was cultured by von Berky Veterinary Services, Woody Point, QLD, AU and supplied as unfed adult ticks (mixed sex). Ticks were maintained in controlled conditions (temp. 18°+2° C., humidity 75±5% RH).
Temperature was maintained at 25±1° C. and the humidity was ambient. […] Ticks were each treated on the abdomen with 1 μL of a single dose level of test sample in acetone; ten ticks were treated with solvent only (acetone) in each test. Tests were replicated 4 times (total of 40 ticks treated). […]

[5] = 24 h, read-out: C. felis Mortality (%) 24 h, 24 h, Laboratory 1 A data
[6] = 8 h, read-out: C. felis Mortality (%) 8 h, 8 h, Laboratory 2 B data
[7] = 24 h, read-out: C. felis Mortality (%) 24 h, 24 h, Laboratory 2 B data

| Structure (SMILES) | IC99 [1] | mortality at 1.26 µg/cm2, 1.26 µg/cm2 [2, 5] | C. felis LC50 ([3]; Laboratory 1 C data) | C. felis LC50 ([3]; Laboratory 2 D data) | mortality at 1.26 µg/cm2, 1.26 µg/cm2 [2, 6] | mortality at 1.26 µg/cm2, 1.26 µg/cm2 [2, 7] | R. sanguineus Mortality (%) 48 h [4] |
| --- | --- | --- | --- | --- | --- | --- | --- |
| CC/C(=N\Oc1cccc(Cl)c1)c1cc(Cl)ccc1NS(=O)(=O)C(F)(F)F [Compound 131] | 1.6 µg/mL | 100% | 0.7 μg/cm^2 | – | – | – | – |
| C/C(=N\Oc1cccc(C(F)(F)F)c1)c1cc(Cl)ccc1NS(=O)(=O)C(F)(F)F [Compound 134, N-{4-chloro-2-[1-(3-trifluoromethylphenoxyimino)ethyl]phenyl}trifluoromethanesulfonamide] | 0.4 µg/mL | 96% | 0.4 μg/cm^2 | – | – | – | – |
| CC/C(=N\Oc1ccc(Cl)c(Cl)c1)c1cc(Cl)ccc1NS(=O)(=O)C(F)(F)F [Compound 139] | 0.9 µg/mL | 64% | – | 0.3^D μg/cm^2 | – | – | – |
| CC/C(=N\OCCOC)c1cc(Cl)ccc1NS(=O)(=O)C(F)(F)F [Compound 183] | – | – | – | – | 100% | 100% | 100% |
| CC/C(=N\OCC(F)(F)F)c1cc(Cl)ccc1NS(=O)(=O)C(F)(F)F [Compound 184] | – | – | – | – | 100% | 100% | 92% |
| C/C(=N\OCc1cccnc1)c1cc(Cl)ccc1NS(=O)(=O)C(F)(F)F [Compound 188] | – | – | – | – | 98% | 98% | 40% |
| C/C(=N\OCc1cccs1)c1cc(Cl)ccc1NS(=O)(=O)C(F)(F)F [Compound 190] | – | – | – | – | 98% | 100% | 75% |
| CCC/C(=N\OC(C)C)c1cc(Cl)ccc1NS(=O)(=O)C(F)(F)F [Compound 191] | – | – | – | – | 52% | 100% | 92% |
| CCC/C(=N\OC1CCCC1)c1cc(Cl)ccc1NS(=O)(=O)C(F)(F)F [Compound 195] | – | – | – | – | 33% | 100% | 97% |
| CC/C(=N\OCC1CCCC1)c1cc(Cl)ccc1NS(=O)(=O)C(F)(F)F [Compound 197] | – | – | – | – | 80% | 97% | 100% |
| CC(C)(C)/C(=N\Oc1ccc(F)cc1)c1cc(Cl)ccc1NS(=O)(=O)C(F)(F)F [Compound 198, N-{4-chloro-2-[1-(4-fluorophenoxyimino)2,2-dimethylpropyl]phenyl}trifluoromethanesulfonamide] | – | – | – | – | 16% | 92% | 35% |
| C/C(=N\Oc1ccc(Cl)cc1)c1ccc(C(F)(F)F)cc1NS(=O)(=O)C(F)(F)F [Compound 199, N-{2-[1-(4-chlorophenoxyimino)ethyl]-5-trifluoromethylphenyl}trifluoromethanesulfonamide] | – | – | – | – | 82% | 100% | 5% |
| C/C(=N\Oc1ccc(F)cc1)c1ccc(C(F)(F)F)cc1NS(=O)(=O)C(F)(F)F [Compound 200, N-{2-[1-(4-fluorophenoxyimino)ethyl]-5-trifluoromethylphenyl}trifluoromethanesulfonamide] | – | – | – | – | 93% | 100% | 17% |
| CC/C(=N\Oc1ccc(Cl)cc1)c1ccc(C(F)(F)F)cc1NS(=O)(=O)C(F)(F)F [Compound 201] | – | – | – | – | 85% | 100% | 22% |
| C/C(=N\OCC1CCCO1)c1cc(Cl)ccc1NS(=O)(=O)C(F)(F)F (stereo not drawn) [Compound 203] | – | – | – | – | 98% | 98% | 95% |
| CC/C(=N\OCc1ccccn1)c1cc(Cl)ccc1NS(=O)(=O)C(F)(F)F [Compound 204] | – | – | – | – | 100% | 100% | 87% |
